Assays:
[1] = system: Streptococcus thermophilus culture CHQ-18; test: Yield of Streptococcus thermophilus fermentation at standard anaerobic high-OD conditions; format: cell-based; settings: 0.2% w/w added, 3 L tank, 40° C., pH 6.0
Description: 0.2% w/w inosine is approximately 7 mM inosine.
This experiment was performed to investigate the effect of adding extra purine containing compounds to an already enriched and optimized media to be used for anaerobic fermentation at high OD-conditions.
The present experiment was performed using the commercially available Streptococcus thermophilus culture CHQ-18, which is available from Chr. Hansen A/S, Hoersholm, Denmark.
The cultures were cultured in a rich medium based on complex medium components, BioSpringer yeast extract 207, Arla skim milk powder (Milex 240), and lactose.
The fermentation was performed in a 3 L agitated fermentation tank at 40° C. using 0.1% (w/w) of the culture mentioned above as inoculum. The pH was maintained at 6.0 by addition of 13.4 N NH4OH. Anaerobic conditions were ensured by flushing with nitrogen in head space (1.5 l/min). Agitation was 300 rpm.
The yields of the fermentations were specified by the obtained biomass measured as the Optical Density at 600 nm (OD600) of unconcentrated samples sampled during the fermentation.

[2] = system: R 604 culture (Lactococcus lactis); test: Yield of Lactococcus lactis fermentation at standard anaerobic high-OD conditions; format: cell-based
Description: To illustrate the effect of adding extra purine containing compounds to an already enriched and optimized media two different types of industrial scale fermentation were compared, one with and one without 0.3% w/w inosine added.
The present experiment was performed using the commercially available R 604 culture, which is available from Chr. Hansen A/S, Hoersholm, Denmark (catalogue no. 200113).
The cultures were cultured in a medium having the following composition: Casein hydrolysate (Oxoid, Basingstoke, UK, Product Code L41), 30 g/l; Primatone RL (Quest, Naarden, The Netherlands, Product Code 5X59051), 30 g/l; soya peptone (Oxoid, Basingstoke, UK, Product Code L44), 30 g/l; yeast extract (Oxoid, Basingstoke, UK, Product Code L21), 15 g/l; MgSO4, 1.5 g/l; Na-ascorbate, 3 g/l; and lactose 50 g/l.
The medium was sterilized by UHT-treatment (143° C. for 8 sec.).
The fermentation was performed in a 550 L industrial fermentation tank without aeration at 30° C. using 1% (w/w) of the culture mentioned above as inoculum. At high OD conditions the fermentation is essentially anaerobic. The cultures were allowed to acidify to pH 6.0. The pH was subsequently maintained at 6.0 by controlled addition of 13.4 N NH4OH.
When no further base consumption was detected, the respective culture was cooled down to about 10° C.
Following cooling, the bacteria in culture media were concentrated 6-18 times by centrifugation and subsequently frozen as pellets in liquid nitrogen at one atmosphere of pressure to produce a so-called frozen Direct Vat Set culture (F-DVS). The F-DVS pellets were stored at −50° C. until further analysis
The yields of the fermentations were specified in two different ways: • 1) by the obtained biomass measured as the Optical Density at 600 nm (OD600), or • 2) by kg of F-DVS culture pr. 100 L fermentation medium wherein the F-DVS culture have an “acidification activity” of 4.8-5.1 according to the Pearce test described in Example 2: Analytical Procedure QAm-043.

[3] = system: L. lactis subsp. lactis CHCC2862; test: Proteomics (2D protein gels) for detection of exogenous purines in the medium; format: cell-based, Lactococcus lactis subsp. lactis; settings: 0.2% inosine, SA medium with 1% glucose
Description: To set up a specific method for detection of the presence/absence of exogenous purines in the medium we inoculated L. lactis subsp. lactis CHCC2862 into defined SA medium with 1% glucose. This medium is devoid of nucleo compounds (Jensen & Hammer 1993). Cultures were set up at 30° C. with and without 0.2% inosine and incubated overnight. Exponentially growing cells were then inoculated into fresh medium at an OD600 of around 0.1. At OD 0.8 (exponential growth) and in stationary phase cells were harvested and 2D protein gels were produced.
In general around 3-400 protein spots were detectable on the gels with the pH range 4-7. For OD 0.8 there were less than 10 spots that were present from the culture without inosine, but absent (or very weak) from the culture with inosine. […] Four of the strongest spots present only on the gel produced from the culture without purines were subjected to in-gel digestion and mass spectrometry identification. The proteins were identified as: purH (bifunctional purine biosynthesis protein), purM (phosphoribosylaminoimidazole synthase), yphF (phosphoribosylformylglycinamidine synthase PurS), and fhs (formyltetrahydrofolate synthetase). […]
Identification of proteins. The identity of proteins in chosen spots was determined by in-gel digestion and analysis of peptide profile and amino acid content using mass spectrometry. […]

[4] = 0.3% w/w inosine, 550 L tank without aeration, 30° C., pH 6.0

OC[C@H]1O[C@@H](n2cnc3c(O)ncnc32)[C@H](O)[C@@H]1O [inosine]
Effect of enhancing agent on yield (biomass as OD600, FIG. 1) [1]: did not result in increased yields
Effect of enhancing agent on yield ([2]; 0.3% w/w inosine added to the anaerobic culture medium before the start of the fermentation): did not result in increased yields
Yield according to Pearce [2, 4]: 4.98
Yield as OD600 [2, 4]: 25.2
Protein spots present from the culture without inosine, but absent (or very weak) from the culture with inosine ([3]; 30° C., OD 0.8 (exponential growth), gels pH 4-7): less than 10 spots
Absence/presence pattern of purine de novo synthesis protein spots ([3]; cells in stationary phase): a similar absence/presence pattern was obtained

From patent publication US9854822B2, “Process for increasing the yield of Lactococcus lactis subsp, lactis and/or Lactococcus lactis subsp. cremoris bacteria cultures during aerobic fermentation” (CHR. HANSEN A/S, priority 2005, dated 2018)
